Among the test systems are A549; BT-549; DU-145; EKVX; Hs-578T; LOX IMVI; MOLT-4; NCI/ADR-RES; RXF 393; SF-295; SK-MEL-28; SNB-19; T47D; UACC-257; UACC-62; UO-31; SF-539.
Common to all, as to assay: NCI tumour cell line growth inhibition, 48 h

The values below come from ChEMBL document CHEMBL1201862, “PubChem BioAssay data set” (2004).

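Five compound concentrations were applied to cells in 96-well plates for 48 hours; endpoints were derived by simple linear interpolation of the resulting dose-response curve. Abbreviation: GI50, concentration required for 50% inhibition of growth.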 Activity calls are given as the source filed them. No stated cut-off is given here; in the data, active = GI50 up to about 1.1 µM and inactive = higher.

In the case of `Fc1ccc(C(OCCN2CCN(CCCc3ccccc3)CC2)c2ccc(F)cc2)cc1`, the GI50 with A549 is 3.58 µM (inactive); with BT-549 it was 7.05 µM (inactive); with DU-145, 5.97 µM (inactive); in the assay with EKVX, 4.17 µM (inactive); in the assay on Hs-578T it was 3.26 µM (inactive); in the assay on LOX IMVI, 4.65 µM (inactive). Besides, the GI50 was 4.26 µM (inactive) in the assay on MOLT-4; 3.13 µM (inactive) in the assay with NCI/ADR-RES; 3.67 µM (inactive) in the assay on RXF 393; 4.39 µM (inactive) in the assay on SF-295; 9.73 µM (inactive) in the assay on SK-MEL-28; 3.99 µM (inactive) in the assay with SNB-19. Moreover, the GI50 in the assay with T47D is 4.9 µM (inactive); in the assay on UACC-257 it was 2.81 µM (inactive); with UACC-62 it was 9.08 µM (inactive); in the assay with UO-31, 2.73 µM (inactive).

Regarding `COC(=O)C1OC2(CCCC3CC32)O[C@H]1C(=O)OC` (stereo partly specified), the GI50 in the assay on A549, with BT-549, in the assay on DU-145, with EKVX, in the assay on Hs-578T and in the assay with LOX IMVI was > 100 µM (inactive) in each case. In addition, the GI50 in the assay with MOLT-4, in the assay on NCI/ADR-RES, in the assay on RXF 393, in the assay with SF-295, in the assay with SF-539 and in the assay on SK-MEL-28 was > 100 µM (inactive) in each case. In addition, the GI50 with SNB-19, in the assay with UACC-257, with UACC-62 and in the assay on UO-31 was > 100 µM (inactive) in each case.

As to `OCC1=C[C@@](COCc2ccccc2)(OCc2ccccc2)[C@@H](OCc2ccccc2)[C@@H]1OCc1ccccc1`, the GI50 in the assay on A549 is 10.5 µM (inactive); in the assay with BT-549, 24.7 µM (inactive); with DU-145, 37.6 µM (inactive); in the assay on EKVX, 11.7 µM (inactive); in the assay on Hs-578T, 21.9 µM (inactive); in the assay with LOX IMVI, 7.31 µM (inactive). Also, the GI50 in the assay on MOLT-4 was 4.57 µM (inactive); with NCI/ADR-RES it was 3.61 µM (inactive); in the assay with RXF 393, 3.64 µM (inactive); in the assay with SF-295 it was 13.2 µM (inactive); with SK-MEL-28 it was 35.3 µM (inactive); with SNB-19, 42.8 µM (inactive). Besides, the GI50 in the assay with T47D is 19.3 µM (inactive); in the assay on UACC-257, 22.6 µM (inactive); in the assay with UACC-62 it was 17.3 µM (inactive); in the assay on UO-31, 17 µM (inactive).

Regarding `CC1CCC2C(C(=O)O[C@H]3C4CCO[C@@H](OC5OC(CO)C(O)C(O)C5O)C4[C@@]4(CO)O[C@@H]34)=CO[C@@H](OC3OC(CO)C(O)C(O)C3O)C12` (stereo partly specified), the GI50 in the assay on A549, in the assay on BT-549, in the assay with DU-145, in the assay with EKVX, in the assay on Hs-578T and with LOX IMVI was > 10 µM (inactive) each time. For the same compound, the GI50 with MOLT-4, in the assay on RXF 393, with SF-295, in the assay with SF-539, in the assay with SK-MEL-28 and in the assay with SNB-19 was > 10 µM (inactive) in each case. In addition, the GI50 with T47D, in the assay on UACC-257, in the assay on UACC-62 and in the assay with UO-31 was > 10 µM (inactive) throughout.

Take `CCN(CC)CCNC(=O)c1cc2cc(NC(=O)c3cc4cc(NC(=O)c5cc6cc(N)ccc6[nH]5)ccc4[nH]3)ccc2[nH]1`: the GI50 with A549, in the assay with BT-549, in the assay on DU-145, in the assay on EKVX, with Hs-578T and in the assay on LOX IMVI was > 100 µM (inactive) throughout. In addition, the GI50 in the assay on MOLT-4, in the assay with NCI/ADR-RES, in the assay on RXF 393, in the assay on SF-295, in the assay with SK-MEL-28 and with SNB-19 was > 100 µM (inactive) in each case. Also, the GI50 with T47D, in the assay on UACC-257, in the assay on UACC-62 and in the assay with UO-31 was > 100 µM (inactive) in each case.

Turning to `O=c1cnnc2sc(=S)[nH]n12`, the GI50 in the assay with A549 was 46.7 µM (inactive); with BT-549, 14.1 µM (inactive); in the assay on DU-145, > 100 µM (inactive); with EKVX it was > 100 µM (inactive); in the assay on Hs-578T, 2.22 µM (inactive); in the assay on LOX IMVI, 4.13 µM (inactive). Besides, the GI50 was 15 µM (inactive) in the assay with MOLT-4; 30.1 µM (inactive) with NCI/ADR-RES; 2.97 µM (inactive) in the assay with SF-295; > 100 µM (inactive) in the assay on SF-539; 65.5 µM (inactive) in the assay with SK-MEL-28; 27.4 µM (inactive) in the assay with SNB-19. Moreover, the GI50 in the assay with UACC-257 was 15.9 µM (inactive); in the assay with UACC-62, 18.2 µM (inactive); in the assay on UO-31 it was 22.2 µM (inactive).

Take `Fc1cccc(C2ON=C(c3ccccc3)N2C23CC4CC(CC(C4)C2)C3)c1` (stereo unspecified): the GI50 in the assay with A549, in the assay with BT-549, with DU-145, in the assay on EKVX, in the assay with Hs-578T and with LOX IMVI was > 10 µM (inactive) throughout. For the same compound, the GI50 in the assay with MOLT-4, in the assay with NCI/ADR-RES, in the assay on RXF 393, in the assay with SF-295, with SF-539 and in the assay on SK-MEL-28 was > 10 µM (inactive) each time. Besides, the GI50 in the assay with SNB-19, in the assay with T47D, in the assay with UACC-257 and in the assay on UACC-62 was > 10 µM (inactive) in each case.

As to `COc1cccc(C(=O)C#Cc2cnc(OC)nc2OC)c1`, the GI50 with A549 was 4.82 µM (inactive); with BT-549 it was 0.306 µM (active); in the assay with DU-145, 5.87 µM (inactive); in the assay on EKVX it was 1.72 µM (inactive); in the assay on Hs-578T, 7.66 µM (inactive); with LOX IMVI it was 0.119 µM (active). In addition, the GI50 is 0.155 µM (active) with MOLT-4; 1.85 µM (inactive) in the assay with NCI/ADR-RES; 0.331 µM (active) in the assay on RXF 393; 14.2 µM (inactive) in the assay on SF-295; 2.04 µM (inactive) with SK-MEL-28; 15.8 µM (inactive) in the assay on SNB-19. In addition, the GI50 in the assay with T47D was 1.83 µM (inactive); with UACC-257, 2.15 µM (inactive); with UACC-62, 1.36 µM (inactive); in the assay with UO-31, 1.37 µM (inactive).

Turning to `CCCCCCCCCCCCOCCOCCOCCOCCOCCOCC(=O)NC(Cc1ccccc1)C(=O)Oc1ccc([N+](=O)[O-])cc1` (stereo unspecified), the GI50 in the assay on A549 was 43 µM (inactive); in the assay on BT-549, 25.5 µM (inactive); in the assay with EKVX it was 61.2 µM (inactive); in the assay on Hs-578T, 41.2 µM (inactive); with LOX IMVI, 29.8 µM (inactive); in the assay with MOLT-4, 23.2 µM (inactive). Further, the GI50 was 37.5 µM (inactive) in the assay with NCI/ADR-RES; 31.8 µM (inactive) with RXF 393; 39.1 µM (inactive) with SF-295; 36.4 µM (inactive) with SF-539; 47.3 µM (inactive) in the assay on SNB-19; 40 µM (inactive) in the assay with T47D. Moreover, the GI50 was 29.9 µM (inactive) with UACC-257, 21.8 µM (inactive) in the assay with UACC-62 and 26 µM (inactive) in the assay on UO-31.

`Cc1cc(C)c(S(=O)(=O)N(CCCCCCN)OCCCN)c(C)c1`: the GI50 with A549 was 70 µM (inactive); in the assay with BT-549, 17.8 µM (inactive); with DU-145, 16.1 µM (inactive); in the assay with EKVX, 15.3 µM (inactive); with Hs-578T it was 13.8 µM (inactive); with LOX IMVI it was 12.2 µM (inactive). Also, the GI50 is 15.3 µM (inactive) in the assay on MOLT-4; 24.3 µM (inactive) in the assay with NCI/ADR-RES; 18.5 µM (inactive) in the assay with SF-295; 18.2 µM (inactive) in the assay with SF-539; 18.1 µM (inactive) with SK-MEL-28; 19.3 µM (inactive) with SNB-19. In addition, the GI50 is 17.7 µM (inactive) in the assay on T47D, 15.8 µM (inactive) in the assay with UACC-257, 19.5 µM (inactive) with UACC-62 and 19.5 µM (inactive) in the assay on UO-31.

As to `S=C(N/N=C/c1ccccn1)N1CCCCCC1`, the GI50 in the assay on A549 is < 0.0142 µM (active); in the assay on BT-549, < 0.01 µM (active); with DU-145 it was 0.115 µM (active); in the assay with EKVX it was < 0.0294 µM (active); in the assay on Hs-578T, 11.5 µM (inactive); in the assay with LOX IMVI it was < 0.01 µM (active). The GI50 is < 0.01 µM (active) with MOLT-4; < 0.01 µM (active) in the assay with NCI/ADR-RES; 0.124 µM (active) in the assay on SF-295; < 0.0288 µM (active) in the assay on SF-539; 0.215 µM (active) in the assay on SK-MEL-28; 0.416 µM (active) with SNB-19. For the same compound, the GI50 in the assay with T47D is < 0.01 µM (active); in the assay with UACC-257, < 0.01 µM (active); in the assay on UACC-62, < 0.0245 µM (active); with UO-31, 0.0288 µM (active).

For `Cc1ncc2c(n1)CCC1=C2OS(=O)(=O)CC1N(C)C` (stereo unspecified), the GI50 in the assay with A549, in the assay with BT-549, with DU-145, with EKVX, in the assay on Hs-578T and with LOX IMVI was > 100 µM (inactive) each time. Further, the GI50 in the assay with MOLT-4 is > 100 µM (inactive); with SF-539, > 100 µM (inactive); in the assay with SK-MEL-28 it was > 100 µM (inactive); in the assay with SNB-19, > 100 µM (inactive); with T47D it was 63.1 µM (inactive); in the assay on UACC-257, > 100 µM (inactive). Besides, the GI50 in the assay with UACC-62 is 96.6 µM (inactive); with UO-31 it was > 100 µM (inactive).

As for `COc1ccc(CC2(O)C3CC4CCC2C4C3)cc1` (stereo unspecified), the GI50 in the assay with A549 was 79.4 µM (inactive); with BT-549, 36.6 µM (inactive); with EKVX it was 49.8 µM (inactive); with Hs-578T, 85.3 µM (inactive); with LOX IMVI it was > 100 µM (inactive); with MOLT-4 it was 45 µM (inactive). For the same compound, the GI50 in the assay with NCI/ADR-RES is 44.7 µM (inactive); in the assay on SF-295, 42.6 µM (inactive); in the assay with SK-MEL-28 it was > 100 µM (inactive); in the assay on SNB-19, > 100 µM (inactive); with UACC-257 it was 38.5 µM (inactive); in the assay on UACC-62, > 100 µM (inactive). The GI50 with UO-31 is 49.7 µM (inactive).
